The results in this text go back to US20240360179A1, “STAPLED PEPTIDES AND METHODS THEREOF” (FOG PHARMACEUTICALS, INC., priority 2021, published 2024).

This assay has as its system COLO320DM cells. The assay can be described thus: COLO320DM proliferation assay (CellTiter-Glo). The class given is cell-based, human. Particulars: read-out: COLO320DM Proliferation Abs IC50. How it is done: COLO320DM proliferation assay IC50: In some embodiments, inhibition of cell proliferation by provided technologies were assessed using cell lines related to or from certain conditions, disorders or diseases. In some embodiments, cell proliferation was assessed in COLO320DM cells. In some embodiments, assessment was performed using the following procedure: On Day 1, cultured COLO320DM cells in a T75 flask were trypsinized in 3 mL of 0.250% trypsin/EDTA for 5 min and quenched with 10 mL RPMI-1640+4% HI FBS assay media. The cells were spun down at 1200 rpm for 5 min, the cell pellet collected and re-suspended at 5000 cells/mL in assay media. Using a Combi liquid handler, cells were dispensed (50 uL, 250 cells/well) into three 384 well plates. Plates were incubated at 37° C., 5% CO2 for 18-22 h. On day 2, compounds were added. A liquid handling system was used to prepare the compound dilution and dispense compound into assay plates. The compounds were serially diluted 1/2 in 90% DMSO to create a 7 point dose curve. From compound plate, 100 nL of compound were dispensed directly into wells of the assay plates to create a dose curve starting at 20 uM and ending at 313 nM. Assay plates were incubated at 37° C., 5% CO2 for 96 h. On day 6, assay plates were removed from the incubator and allowed to sit at room temperature for 30 min. Using a liquid handler, 20 uL of CellTiter Glo reagent was added to each well. The assay plates were shaken for 2 min and allowed to sit on the bench for 10-15 minutes. The assay plates were read using the CellTiter Glo protocol on a GloMax microplate reader, and the data analyzed using GraphPad Prism. Activities of various agents, including various stapled peptides in Table E2, were confirmed.
In some embodiments, an assessment was performed as follows. On day 0, cells were seeded in cell culture media (RPMI1640, 4% FBS) in a 96-well plate at desired density, typically at 1000 cells/well. On day 1, 10 mM agent stock solution (in DMSO) was first serially diluted into DMSO at 1:2 ratio, followed by diluting with cell culture media at two times of the final concentrations. Finally, agent-containing media were introduced to cell culture wells already having the same volume of cell culture media. Cells were incubated with agents for desired days before lysed for CellTiter-Glo® Luminescent Cell Viability Assay according to the manufacture instruction (Promega, G7570). Luminescent signal was obtained from a microplate reader (GloMax, Promega). Cell viability data was expressed as % relative to DMSO control wells.
Proliferation Assay. In some embodiments, various proliferation assays are utilized to characterize or assess provided technologies. In some embodiments, on day 0, cells were seeded in cell culture media in a 96-well plate at desired density, typically at 1000 cells/well. On day 1, 10 mM compound stock solution was first serially diluted into DMSO, followed by diluting with cell culture media at two times of the final concentrations. Finally, compound-containing media were introduced to cell culture wells already having the same volume of cell culture media. Cells were incubated with compounds for desired days before lysed for CTG according to the manufacture instruction (G7570, Promega). Luminescent signal was obtained from a microplate reader (GloMax, Promega).

With “Ac-PL3-Asp-Ile-B5-Asp-3COOHF-Aib-Ala-Phe-TriAzLys*3-PyrS2-Phe-34ClF-sCH2S*3-NH2 [I-1858]”, the IC50 was not above 10 µM.
For “Ac-PL3-Asp-Ile-B5-Asp-3COOHF-Aib-Ala-Phe-TriAzOrn*3-PyrS2-Phe-34ClF-sCH2S*3-NH2 [I-1860]” the value was not above 10 µM; for “Ac-PL3-Asp-Ile-B5-Asp-3COOHF-Aib-Ala-Phe-hGlnR*3-PyrS2-Phe-34ClF-Lys*3-NH2 [I-1372]”, not above 10 µM; for “Ac-PL3-Asp-Ile-B5-Asp-3COOHF-Aib-Ala-Phe-sAla*3-PyrS2-Phe-34ClF-TriAzLys*3-NH2 [I-1857]”, 10 to 20 µM.
For “Ac-PL3-Asp-Ile-B5-Asp-3COOHF-Aib-Ala-Phe-sCH2S*3-PyrS2-Phe-34ClF-TriAzLys*3-NH2 [I-1859]” the value was not above 10 µM; for “Ac-PL3-Asp-Ile-B5-Asp-3COOHF-Aib-Ala-Phe-sCH2S*3-PyrS2-Phe-34ClF-TriAzOrn*3-NH2 [I-1862]”, not above 10 µM.
For “Ac-PL3-Asp-Ile-B5-Asp-3COOHF-Ala-Ala-Phe-Lys*3-PyrS2-3Thi-BztA-GlnR*3-Ala-NH2 [I-970]” the value was not above 10 µM.
Regarding “Ac-PL3-Asp-Ile-B5-Asp-3COOHF-Ala-Ala-Phe-TriAzLys*3-PyrS2-Phe-34ClF-sAla*3-NH2 [I-1863]”, the IC50 was not above 10 µM.
“Ac-PL3-Asp-Ile-B5-Asp-3COOHF-Ala-Ala-Phe-TriAzLys*3-PyrS2-Phe-34ClF-sCH2S*3-NH2 [I-1865]”: the IC50 was not above 10 µM.
The figure for “Ac-PL3-Asp-Ile-B5-Asp-3COOHF-Ala-Ala-Phe-sAla*3-PyrS2-Phe-34ClF-TriAzLys*3-NH2 [I-1864]” is more than 20 µM; for “Ac-PL3-Asp-Ile-B5-Asp-3COOHF-Ala-Ala-Phe-sCH2S*3-PyrS2-Phe-34ClF-TriAzLys*3-NH2 [I-1866]” it is 10 to 20 µM.
For “Ac-PL3-Asp-Ile-B5-Asp-3COOHF-Ala-Ala-Phe-sCH2S*3-PyrS2-Phe-34ClF-TriAzOrn*3-NH2 [I-1869]” the value was not above 10 µM.
With “Ac-PL3-Asp-Ile-B5-Asp-3COOHF-CyLeu-Ala-Phe-Lys*3-PyrS2-3Thi-34ClF-GlnR*3-NH2 [I-1040]”, the IC50 was not above 10 µM.
As to “Ac-PL3-Asp-Ile-B5-Asp-3COOHF-CyLeu-Ala-Phe-Lys*3-PyrS2-3Thi-34ClF-GlnR*3-Val-Thr-Ala-NH2 [I-1268]”, the IC50 was not above 10 µM.
As for “Ac-PL3-Asp-Ile-B5-Asp-3COOHF-CyLeu-Ala-Phe-Lys*3-PyrS2-Phe-34ClF-GlnR*3-NH2 [I-1052]”, the IC50 is not above 10 µM.
As to “Ac-PL3-Asp-Ile-B5-Asp-3COOHF-Phe-Ala-Phe-Lys*3-PyrS2-3Thi-34MeF-GlnR*3-NH2 [I-1102]”, the IC50 was not above 10 µM.
As to “Ac-PL3-Asp-Ile-B5-Asp-3COOHF-Phe-Ala-Phe-Lys*3-PyrS2-Phe-34MeF-GlnR*3-Ala-NH2 [I-1106]”, the IC50 was not above 10 µM.
The figure for “Ac-PL3-Asp-Ile-B5-Asp-3COOHF-Phe-Ala-Phe-Lys*3-PyrS2-Phe-34MeF-GlnR*3-NH2 [I-1107]” is not above 10 µM; for “Ac-PL3-Asp-Npg-B5-3COOHF-Asp-Aib-Ala-Phe-Lys*3-PyrS2-3Thi-BztA-GlnR*3-Ala-NH2 [I-742]” it is more than 20 µM; for “Ac-PL3-Asp-Npg-B5-Asp-3COOHF-Aib-Ala-Phe-Lys*3-PyrS2-2FF-34ClF-GlnR*3-NH2 [I-1537]” it is not above 10 µM.
For “Ac-PL3-Asp-Npg-B5-Asp-3COOHF-Aib-Ala-Phe-Lys*3-PyrS2-2NH2F-BztA-GlnR*3-Ala-NH2 [I-1736]” the value was not above 10 µM.
For “Ac-PL3-Asp-Npg-B5-Asp-3COOHF-Aib-Ala-Phe-Lys*3-PyrS2-3Thi-34ClF-GlnR*3-Ala-Ala-Ala-[mPEG8]-Lys [I-1707]”, the IC50 is not above 10 µM.
The figure for “Ac-PL3-Asp-Npg-B5-Asp-3COOHF-Aib-Ala-Phe-Lys*3-PyrS2-3Thi-34ClF-GlnR*3-Ala-Ala-Ala-[mPEG37]-Lys [I-1708]” is not above 10 µM.
“Ac-PL3-Asp-Npg-B5-Asp-3COOHF-Aib-Ala-Phe-Lys*3-PyrS2-3Thi-34ClF-GlnR*3-NH2 [I-867]”: the IC50 is not above 10 µM.
For “Ac-PL3-Asp-Npg-B5-Asp-3COOHF-Aib-Ala-Phe-Lys*3-PyrS2-3Thi-34ClF-GlnR*3-Pro-NH2 [I-868]” the value was not above 10 µM; for “Ac-PL3-Asp-Npg-B5-Asp-3COOHF-Aib-Ala-Phe-Lys*3-PyrS2-3Thi-34ClF-GlnR*3-Ser-NH2 [I-869]”, not above 10 µM.
For “Ac-PL3-Asp-Npg-B5-Asp-3COOHF-Aib-Ala-Phe-Lys*3-PyrS2-3Thi-BztA-GlnR*3-Ala-Ala-Arg-Ala-Ala-Ala-Ala-NH2 [I-1155]” the value was not above 10 µM; for “Ac-PL3-Asp-Npg-B5-Asp-3COOHF-Aib-Ala-Phe-Lys*3-PyrS2-3Thi-BztA-GlnR*3-Ala-Ala-Arg-Ala-Ala-Ala-Arg-NH2 [I-1157]”, not above 10 µM.
The figure for “Ac-PL3-Asp-Npg-B5-Asp-3COOHF-Aib-Ala-Phe-Lys*3-PyrS2-3Thi-BztA-GlnR*3-Ala-Ala-Leu-Leu-NH2 [I-806]” is not above 10 µM; for “Ac-PL3-Asp-Npg-B5-Asp-3COOHF-Aib-Ala-Phe-Lys*3-PyrS2-3Thi-BztA-GlnR*3-Ala-Ala-Leu-NH2 [I-805]” it is not above 10 µM.
As for “Ac-PL3-Asp-Npg-B5-Asp-3COOHF-Aib-Ala-Phe-Lys*3-PyrS2-3Thi-BztA-GlnR*3-Ala-Ala-Lys-Ala-Ala-Ala-Lys-NH2 [I-1158]”, the IC50 is not above 10 µM.
For “Ac-PL3-Asp-Npg-B5-Asp-3COOHF-Aib-Ala-Phe-Lys*3-PyrS2-3Thi-BztA-GlnR*3-Ala-Ala-Lys-Leu-Pro-Val-nLeu-NH2 [I-815]” the value was not above 10 µM.
On to “Ac-PL3-Asp-Npg-B5-Asp-3COOHF-Aib-Ala-Phe-Lys*3-PyrS2-3Thi-BztA-GlnR*3-Ala-Ala-Val-Pro-Ala-Leu-Arg-NH2 [I-817]”, for which the IC50 was not above 10 µM.
For “Ac-PL3-Asp-Npg-B5-Asp-3COOHF-Aib-Ala-Phe-Lys*3-PyrS2-3Thi-BztA-GlnR*3-Ala-Ala-Val-Pro-Thr-Leu-Lys-NH2 [I-813]” the value was not above 10 µM.
“Ac-PL3-Asp-Npg-B5-Asp-3COOHF-Aib-Ala-Phe-Lys*3-PyrS2-3Thi-BztA-GlnR*3-Ala-Arg-Ala-Ala-Ala-Arg-Ala-NH2 [I-1156]”: the IC50 was not above 10 µM.
As to “Ac-PL3-Asp-Npg-B5-Asp-3COOHF-Aib-Ala-Phe-Lys*3-PyrS2-3Thi-BztA-GlnR*3-Ala-Lys-Leu-Pro-Val-nLeu-NH2 [I-814]”, the IC50 is not above 10 µM.
With “Ac-PL3-Asp-Npg-B5-Asp-3COOHF-Aib-Ala-Phe-Lys*3-PyrS2-3Thi-BztA-GlnR*3-Ala-Val-Pro-Ala-Leu-Arg-NH2 [I-816]”, the IC50 is not above 10 µM.
On to “Ac-PL3-Asp-Npg-B5-Asp-3COOHF-Aib-Ala-Phe-Lys*3-PyrS2-3Thi-BztA-GlnR*3-Ala-Val-Pro-Thr-Leu-Lys-NH2 [I-812]”, for which the IC50 was not above 10 µM.
For “Ac-PL3-Asp-Npg-B5-Asp-3COOHF-Aib-Ala-Phe-Lys*3-PyrS2-3Thi-BztA-GlnR*3-Leu-Ser-NH2 [I-785]” the value was not above 10 µM; for “Ac-PL3-Asp-Npg-B5-Asp-3COOHF-Aib-Ala-Phe-Lys*3-PyrS2-3Thi-BztA-GlnR*3-Pro-NH2 [I-719]”, not above 10 µM; for “Ac-PL3-Asp-Npg-B5-Asp-3COOHF-Aib-Ala-Phe-Lys*3-PyrS2-3Thi-BztA-GlnR*3-Ser-NH2 [I-721]”, not above 10 µM.
